Source: patent US12655160B2, “KRAS G12D inhibitors” (Mirati Therapeutics, Inc., priority 2020, dated 2026)
Where two headings read alike, the source gives them in different places.

Legend:
[1] = target: T1, KRas G12D (Homo sapiens, UniProt P01116, G12D); assay: KRas G12D Binding Assay (TR-FRET displacement of labeled tracer); parameters: corresponding to amino acids 1:169, produced at Array BioPharma Inc; biotin (biotinylated); details: TR-FRET displacement of Cy5 labelled tracer, Biotinylated GDP-loaded KRAS G12D (amino acids 1:169), 60 minute incubation at 22° C.
Protocol: This Example illustrates that exemplary compounds of the present invention bind to KRas G12D and are capable of displacing a labeled tracer ligand occupying the KRas G12D binding site. The ability of a compound to bind to KRAS G12D was measured using a TR-FRET displacement assay. Biotinylated GDP-loaded recombinant human KRAS G12D (corresponding to amino acids 1:169, produced at Array BioPharma Inc.) was incubated with a custom-made Cy5 labelled tracer, europium labelled streptavidin and compound (2% DMSO final) in buffer (50 mM HEPES [pH 7.5], 5 mM MgCl2, 0.005% Tween-20 & 1 mM DTT). After a 60 minute incubation at 22° C., the reaction was measured using a PerkinElmer EnVision multimode plate reader via TR-FRET dual wavelength detection, and the percent of control (POC) calculated using a ratiometric emission factor. […] The POC values were fit to a 4-parameter logistic curve and the IC50 value was determined as the concentration where the curve crosses 50 POC.
Target sequence in this assay (P01116 1-169 isoform P01116-2 G12D): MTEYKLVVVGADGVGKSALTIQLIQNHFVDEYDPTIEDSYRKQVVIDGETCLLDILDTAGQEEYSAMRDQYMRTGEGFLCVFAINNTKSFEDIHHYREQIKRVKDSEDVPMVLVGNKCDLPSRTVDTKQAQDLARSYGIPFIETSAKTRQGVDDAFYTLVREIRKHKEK

[2] = test system: KRas G12D-mediated Phosphorylation of ERK; assay: Inhibition of KRas G12D-mediated Phosphorylation of ERK in AGS cells; format: cell-based; details: Homo sapiens
Protocol: AGS cells (ATCC CRL-1739) expressing G12D were grown in DMEM medium supplemented with 10% fetal bovine serum, 10 mM HEPES, and Penicillin/Streptomycin. Cells were plated in tissue culture treated 96 well plates at a density of 40,000 cells/well and allowed to attach for 12-14 hours. Diluted compounds were then added in a final concentration of 0.5% DMSO. After 3 hours, the medium was removed, 150 μl of 4.0% formaldehyde was added and the plates incubated at room temperature for 20 minutes. The plates were washed with PBS, and permeabilized with 150 μL of ice cold 100% methanol for 10 minutes. Non-specific antibody binding to the plates was blocked using 100 μL Licor blocking buffer (Li-Cor Biotechnology, Lincoln NE) for 1 hour at room temperature.
The amount of phospho-ERK was determined using an antibody specific for the phosphorylated form of ERK and compared to the amount of GAPDH. Primary antibodies used for the detection were added as follows: Phospho-ERK(Cell Signaling cs-9101) diluted 1:500 and GAPDH (Millipore MAB374) diluted 1:5000 in Licor block+0.05% Tween 20. The plates were incubated for 2 hours at room temperature. The plates were washed with PBS+0.05% Tween 20.
Secondary antibodies used to visualize primary antibodies were added as follows: Anti-rabbit-680 diluted 1:1000 and Anti-mouse-800 diluted 1:1000 both in Licor block+0.05% Tween20, and were incubated for 1 hour at room temperature. The plates were washed with PBS+0.05% Tween 20. A 100 μl aliquot of PBS was added to each well and the plates were read on a Li-Cor Odyssey CLX plate reader.
The phospho-ERK(Thr202/Tyr204 signal was normalized to the GAPDH signal for each well and percent of DMSO control values were calculated. IC50 values were generated using a 4-parameter fit of the dose response curve

[3] = target: T1, KRas G12D; assay: KRas G12D Surface Plasmon Resonance (SPR) Binding Assay; parameters: Avidin-tag (so in the source); details: Biacore T200, Biotinylated Avidin-tagged KRAS protein on SA chip, 20 C, 1:1 binding model
Protocol: This Example illustrates that exemplary compounds of the present invention bind to KRas G12D as measured by surface plasmon resonance (SPR). Briefly, 1 L of 1.05×HBS-Mg buffer (262.5 mM BioUltra Hepes, pH 7.5, 157.5 mM NaCl, 105 mM MgCl2, 0.525 mM TCEP, 0.0305% Brij-35) was prepared and filter sterilized using a 0.22 μm bottle top filter. Approximately 50 mL of 1.05×HBS-Mg buffer was removed and saved for future dilutions. A 50 mL aliquot of DMSO (Sigma Aldrich DMSO Lot. #SHBK2079) was added and continued to stir for 10 minutes, creating the final 1.0×HBS-Mg buffer (250 mM BioUltra Hepes pH 7.5, 150 mM NaCl, 100 mM MgCl2, 0.5 mM TCEP, 0.03% Brij-35). Biacore T200 instrument was primed using 1.0×HBS-Mg buffer before docking a GE Streptavidin (SA) chip and then primed two additional times prior to beginning the immobilization step. All immobilized protein mixtures were created using 3-5 mg/mL Biotinylated Avidin-tagged KRAS protein using the following immobilization settings: SA chip type, 1 flow cells per cycle, 720 second contact time, and 5 μL/min flow rate. Normalization of the detector was also performed during the immobilization step using the GE BiaNormalize solution. All compounds were diluted to 10 mM in 100% DMSO prior to being diluted 20× in 1.05× buffer. Another 10λ dilution was created using 1.0× buffer prior to performing a series of 3× dilutions to create a compound concentration curve using the following assay settings: 20 C analysis temperature, General Settings=10 Hz data collection rate and multi-detection; Assay Steps=all set to LMW kinetics; Cycle Types=LMW kinetics (60 s contact time, 120 s dissociation time, 100 μL/min flow rate, extra wash after injection with 50% DMSO, flow path 1,2,3,4); Flow path detection=2-1, 4-3). Data evaluation was performed using the Biacore T200 Evaluation software and data fit to 1:1 binding model.
Target sequence in this assay (P01116 1-188 isoform P01116-2 G12D): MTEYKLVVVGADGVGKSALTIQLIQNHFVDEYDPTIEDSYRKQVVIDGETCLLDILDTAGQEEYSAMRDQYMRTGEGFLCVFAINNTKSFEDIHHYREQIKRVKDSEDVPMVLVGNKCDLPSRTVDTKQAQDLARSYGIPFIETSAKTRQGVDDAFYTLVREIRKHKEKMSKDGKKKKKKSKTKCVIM

[4] = AGS cells expressing G12D, 3 hours, phospho-ERK signal normalized to GAPDH, read-out: IC50

Row | IC50 [1] [nM] | Structure (SMILES) | IC50 [2, 4] [nM] | IC50 ([2]; AGS, 3 h) [nM] | Kd [3] [nM]
1 | 0.7 | CCc1cccc2cc(O)cc(-c3ncc4c(NCC5(N(C)C)CCC5)nc(OC[C@@]56CCCN5[C@H](COC(=O)NC)CC6)nc4c3F)c12 (racemic) [Example 44] | 220 |  | 
2 | 80.9 | CN[C@H]1C[C@@H](Nc2nc(OCC34CCCN3CCC4)nc3c(F)c(-c4cc(O)cc5ccccc45)ncc23)C1 [Example 17, 4-(8-fluoro-4-(((1s,3s)-3-(methylamino)cyclobutyl)amino)-2-((tetrahydro-1H-pyrrolizin-7a(5H)-yl)methoxy)pyrido[4,3-d]pyrimidin-7-yl)naphthalen-2-ol bis(2,2,2-trifluoroacetate)] | > 16700 |  | 
3 | 46.5 | Oc1cc(-c2ncc3c(NC4CNC4)nc(OCC45CCCN4CCC5)nc3c2F)c2ccccc2c1 [Example 18, 4-(4-(azetidin-3-ylamino)-8-fluoro-2-((tetrahydro-1H-pyrrolizin-7a(5H)-yl)methoxy)pyrido[4,3-d]pyrimidin-7-yl)naphthalen-2-ol] | > 16700 |  | 
4 | 22 | C#Cc1cccc2cccc(-c3ncc4c(NCC5(N(C)C)CCC5)nc(OC[C@@]56CCCN5C[C@H](F)C6)nc4c3F)c12 [Example 20, N-((1-(dimethylamino)cyclobutyl)methyl)-7-(8-ethynylnaphthalen-1-yl)-8-fluoro-2-(((2R,7aS)-2-fluorotetrahydro-1H-pyrrolizin-7a(5H)-yl)methoxy)pyrido[4,3-d]pyrimidin-4-amine bis(2,2,2-trifluoroacetate)] | 2510 |  | 
5 | 59.2 | CCc1cccc2cccc(-c3ncc4c(NCC5(N(C)C)CCC5)nc(OC[C@@]56CCCN5C[C@H](F)C6)nc4c3F)c12 [Example 21, N-((1-(dimethylamino)cyclobutyl)methyl)-7-(8-ethylnaphthalen-1-yl)-8-fluoro-2-(((2R,7aS)-2-fluorotetrahydro-1H-pyrrolizin-7a(5H)-yl)methoxy)pyrido[4,3-d]pyrimidin-4-amine] | > 16700 |  | 
6 | 62.8 | NC1(CNc2nc(OC[C@@]34CCCN3C[C@H](F)C4)nc3c(F)c(-c4cc(O)cc5ccccc45)ncc23)CCC1 [Example 29, 4-(4-(((1-aminocyclobutyl)methyl)amino)-8-fluoro-2-(((2R,7aS)-2-fluorotetrahydro-1H-pyrrolizin-7a(5H)-yl)methoxy)pyrido[4,3-d]pyrimidin-7-yl)naphthalen-2-ol bis(2,2,2-trifluoroacetate)] | 1560 |  | 
7 | 1.1 | CCc1cccc2cc(O)cc(-c3ncc4c(NCC5(N(C)C)CCC5)nc(OC[C@]56CCCN5[C@@H](COC(=O)N(C)C)CC6)nc4c3F)c12 [Example 43, ((3R,7aR)-7a-(((4-(((1-(dimethylamino)cyclobutyl)methyl)amino)-7-(8-ethyl-3-hydroxynaphthalen-1-yl)-8-fluoropyrido[4,3-d]pyrimidin-2-yl)oxy)methyl)hexahydro-1H-pyrrolizin-3-yl)methyl dimethylcarbamate] | 53.5 |  | 
8 | 0.4 | C#Cc1c(F)ccc2cc(O)cc(-c3ncc4c(NCC5(N(C)C)CCC5)nc(OC[C@]56CCCN5[C@@H](COC(=O)N(C)C)CC6)nc4c3F)c12 [Example 45, ((3R,7aR)-7a-(((4-(((1-(dimethylamino)cyclobutyl)methyl)amino)-7-(8-ethynyl-7-fluoro-3-hydroxynaphthalen-1-yl)-8-fluoropyrido[4,3-d]pyrimidin-2-yl)oxy)methyl)hexahydro-1H-pyrrolizin-3-yl)methyl dimethylcarbamate] | 38.3 |  | 
9 | 0.7 | CCc1c(F)ccc2cc(O)cc(-c3ncc4c(NCC5(N(C)C)CCC5)nc(OC[C@]56CCCN5[C@@H](COC(=O)N(C)C)CC6)nc4c3F)c12 [Example 46, ((3R,7aR)-7a-(((4-(((1-(dimethylamino)cyclobutyl)methyl)amino)-7-(8-ethyl-7-fluoro-3-hydroxynaphthalen-1-yl)-8-fluoropyrido[4,3-d]pyrimidin-2-yl)oxy)methyl)hexahydro-1H-pyrrolizin-3-yl)methyl dimethylcarbamate] | 38.7 |  | 
10 | 89.6 | CN(C)C1(CNc2nc(OC[C@]34CCCN3[C@@H](COC(=O)N3CCCCC3)CC4)nc3c(F)c(-c4cccc5cccc(Cl)c45)ncc23)CCC1 [Example 50, ((3R,7aR)-7a-(((7-(8-chloronaphthalen-1-yl)-4-(((1-(dimethylamino)cyclobutyl)methyl)amino)-8-fluoropyrido[4,3-d]pyrimidin-2-yl)oxy)methyl)hexahydro-1H-pyrrolizin-3-yl)methyl piperidine-1-carboxylate] | 10700 |  | 
11 | 102 | CN(C)C(=O)OC[C@H]1CC[C@@]2(COc3nc(NCC4(N(C)C)CCC4)c4cnc(-c5cccc6cccc(Cl)c56)c(F)c4n3)CCCN12 [Example 51, ((3R,7aR)-7a-(((7-(8-chloronaphthalen-1-yl)-4-(((1-(dimethylamino)cyclobutyl)methyl)amino)-8-fluoropyrido[4,3-d]pyrimidin-2-yl)oxy)methyl)hexahydro-1H-pyrrolizin-3-yl)methyl dimethylcarbamate] | > 16700 |  | 
12 | 79.3 | CN(C)C1(CNc2nc(OCC34CCCN3CCC4)nc3c(F)c(-c4cccc5cccc(Cl)c45)ncc23)CCC1 [Example 54, 7-(8-chloronaphthalen-1-yl)-N-((1-(dimethylamino)cyclobutyl)methyl)-8-fluoro-2-((tetrahydro-1H-pyrrolizin-7a(5H)-yl)methoxy)pyrido[4,3-d]pyrimidin-4-amine] | > 16700 |  | 
13 | 2.6 | C#Cc1c(F)ccc2cccc(-c3ncc4c(NCC5(N(C)C)CCC5)nc(OCC56CCCN5CCC6)nc4c3F)c12 [Example 56, N-((1-(dimethylamino)cyclobutyl)methyl)-7-(8-ethynyl-7-fluoronaphthalen-1-yl)-8-fluoro-2-((hexahydro-1H-pyrrolizin-7a-yl)methoxy)pyrido[4,3-d]pyrimidin-4-amine] | 350 |  | 

Row | Structure (SMILES) | IC50 [1] [nM] | IC50 [2, 4] [nM] | IC50 ([2]; AGS, 3 h) [nM] | Kd [3] [nM]
14 | CN(C)C1(CNc2nc(OC[C@@]34CCCN3C[C@H](F)C4)nc3c(F)c(-c4cc(O)cc5ccccc45)ncc23)CCC1 [Example 1, 4-(4-(((1-(dimethylamino)cyclobutyl)methyl)amino)-8-fluoro-2-(((2R,7aS)-2-fluorotetrahydro-1H-pyrrolizin-7a(5H)-yl)methoxy)pyrido[4,3-d]pyrimidin-7-yl)naphthalen-2-ol] | 19.6 |  | 692 | 14.7
